≈ marks a conversion by molar mass, not a printed value. Calls of active or inactive are those of the source. The rule behind the calls is not given here.
Legend:
Staphylococcus aureus [1] = assay: Antimicrobial activity against Staphylococcus aureus RDN1 harboring cloned pTZ2162-encoded QacBIII E320A mutant gene by agar dilution method; format: functional
[2] = Activity of antiseptic efflux protein QacBIII expressed in Staphylococcus aureus RDN1 assessed as decrease in compound accumulation
[3] = Activity of antiseptic efflux protein QacBIII expressed in Staphylococcus aureus RDN1 assessed as decrease in compound accumulation in presence of CCCP
Staphylococcus aureus [4] = assay: Antimicrobial activity against Staphylococcus aureus RDN1 harboring cloned pTZN10 containing cat and bla genes by agar dilution method; format: functional
Staphylococcus aureus [5] = assay: Antimicrobial activity against Staphylococcus aureus RDN1 harboring cloned pTZ2396-encoded QacA gene by agar dilution method; format: functional
Staphylococcus aureus [6] = assay: Antimicrobial activity against Staphylococcus aureus RDN1 harboring cloned pTZ2182-encoded QacBII gene by agar dilution method; format: functional
Staphylococcus aureus [7] = assay: Antimicrobial activity against Staphylococcus aureus RDN1 harboring cloned pTZ2238-encoded QacBIV gene by agar dilution method; format: functional
Staphylococcus aureus [8] = assay: Antimicrobial activity against Staphylococcus aureus RDN1 harboring cloned pTZ2162-encoded QacBIII gene by agar dilution method; format: functional
Staphylococcus aureus [9] = assay: Antimicrobial activity against Staphylococcus aureus RDN1 harboring cloned pTZ2238-encoded QacBIV A19T mutant gene by agar dilution method; format: functional
Staphylococcus aureus [10] = assay: Antimicrobial activity against Staphylococcus aureus RDN1 harboring cloned pTZ2238-encoded QacBIV E377G mutant gene by agar dilution method; format: functional
Staphylococcus aureus [11] = assay: Antimicrobial activity against Staphylococcus aureus RDN1 harboring cloned pTZ2238-encoded QacBIV S151I mutant gene by agar dilution method; format: functional
Staphylococcus aureus [12] = assay: Antimicrobial activity against Staphylococcus aureus RDN1 harboring cloned pTZ2238-encoded QacBIV A184V mutant gene by agar dilution method; format: functional

SMILES	MIC (Staphylococcus aureus [1]) [µg/mL]	Activity [2]	Activity [3]	MIC (Staphylococcus aureus [4]) [µg/mL]	MIC (Staphylococcus aureus [5]) [µg/mL]	MIC (Staphylococcus aureus [6]) [µg/mL]	MIC (Staphylococcus aureus [7]) [µg/mL]	MIC (Staphylococcus aureus [8]) [µg/mL]	MIC (Staphylococcus aureus [9]) [µg/mL]	MIC (Staphylococcus aureus [10]) [µg/mL]	MIC (Staphylococcus aureus [11]) [µg/mL]	MIC (Staphylococcus aureus [12]) [µg/mL]
O=C(O)c1cn(C2CC2)c2cc(N3CCNCC3)c(F)cc2c1=O [CIPROFLOXACIN]	0.06 (≈ 0.181 µM)	Active	inactive	0.06 (≈ 0.181 µM)	0.13 (≈ 0.392 µM)	0.06 (≈ 0.181 µM)	0.06 (≈ 0.181 µM)	0.25 (≈ 0.754 µM)	–	–	–	–
CC[n+]1c(-c2ccccc2)c2cc(N)ccc2c2ccc(N)cc21.[Br-] [HOMIDIUM BROMIDE]	≥ 2050	–	–	1	≥ 2050	≥ 2050	≥ 2050	256	≥ 2050	≥ 2050	≥ 2050	≥ 2050
N=C(N)c1ccc(OCCCCCOc2ccc(C(=N)N)cc2)cc1.O=S(=O)(O)CCO	512	–	–	1	512	512	1020	512	1020	512	1020	1020
[Cl-].c1ccc([P+](c2ccccc2)(c2ccccc2)c2ccccc2)cc1 [TETRAPHENYLPHOSPHONIUM CHLORIDE]	256	–	–	4	256	256	512	512	512	512	512	512
C[n+]1c2cc(N)ccc2cc2ccc(N)cc21.[Cl-] [EUFLAVINE]	1020	–	–	1	1020	1020	1020	256	1020	1020	1020	1020
CCn1cc(C(=O)O)c(=O)c2cc(F)c(N3CCNCC3)cc21 [NORFLOXACIN]	0.13 (≈ 0.407 µM)	Active	inactive	0.13 (≈ 0.407 µM)	0.25 (≈ 0.783 µM)	0.13 (≈ 0.407 µM)	0.13 (≈ 0.407 µM)	0.5 (≈ 1.57 µM)	–	–	–	–
N=C(NCCCCCCNC(=N)NC(=N)Nc1ccc(Cl)cc1)NC(=N)Nc1ccc(Cl)cc1.O=C(O)[C@H](O)[C@@H](O)[C@H](O)[C@H](O)CO	4	–	–	0.25	2	4	4	2	4	2	4	4
CC(=O)NCC(=O)O.N=C(N)c1ccc(/N=N/Nc2ccc(C(=N)N)cc2)cc1 [DIMINAZEN ACETURATE]	512	–	–	4	2050	512	2050	1020	2050	512	2050	2050
CN(C)c1ccc(C(=C2C=CC(=[N+](C)C)C=C2)c2ccc(N(C)C)cc2)cc1.[Cl-] [GENTIAN VIOLET]	≥ 1	–	–	0.13	≥ 1	≥ 1	0.5	0.5	0.5	≥ 1	0.5	0.5
C[C@H]1COc2c(N3CCN(C)CC3)c(F)cc3c(=O)c(C(=O)O)cn1c23.C[C@H]1COc2c(N3CCN(C)CC3)c(F)cc3c(=O)c(C(=O)O)cn1c23.O [LEVOFLOXACIN]	0.25	–	–	0.25	0.25	0.25	0.25	0.25	–	–	–	–

From ChEMBL document CHEMBL1671731, “Fluoroquinolone efflux by the plasmid-mediated multidrug efflux pump QacB variant QacBIII in Staphylococcus aureus” (2010)
